Measured values from PMC11206988, “Study on the Effect of Pharmaceutical Excipient PEG400 on the Pharmacokinetics of Baicalin in Cells Based on MRP2, MRP3, and BCRP Efflux Transporters” (Pharmaceutics, 2024).
Read-outs that look alike come from different tables or passages of the source.

Target: T1, MRP2 (Homo sapiens, UniProt Q92887)
T1 construct: expressed in transfected cells; host or cells: MDCK II
Assay: Transport of baicalin across MDCK II-MRP2 cell monolayer (transwell)
Assay type: in vitro ADME
Protocol: The cells were inoculated at a density of 0.5 mL (1 × 10^5) in the upper layer of the transwell plate (AP side), and the culture was changed daily after the lower layer was added with 1.5 mL of complete medium without cells every other day. After 5–7 days of growth, the supernatant was aspirated and discarded, and the cell monolayer was rinsed twice with 37 °C Hank’s Balanced Salt Solution (HBSS, pH 7.4). The electrical resistance of the cell monolayer compartments was measured with a resistivity meter (TEER), and the integrity of the cell monolayer was monitored using TEER. The differentiation of MDCK II-WT, MDCK II-MRP2, MDCK II-MRP3, and MDCK II-BCRP cells was examined by determining sodium fluorescein permeability prior to transit experiments. This was done in order to determine the integrity of the cell monolayer. When the TEER value of the cell monolayer was greater than 150 Ω·cm^2 and the MDCK II-MRP2, MDCK II-MRP3, and MDCK II-BCRP sodium fluorescein permeability was less than 0.5 × 10^−6 cm/s or the MDCK II-WT sodium fluorescein permeability was less than 1 × 10^−6 cm/s, the cell monolayer was considered intact and suitable for transit experiments. TEER = (TEERcell monolayer − TEERblank) × Aarea(1) wherein TEERcell monolayer is the resistance of the cell monolayer read directly from the Millicell ERS-2 resistivity meter, and TEERblank is the resistance read by inserting a blank HBSS (no cells) only. Aarea is the surface area of the filter membrane, 1.12 cm^2.
In this experiment, a 100 μM baicalin solution (dissolved in HBSS) containing different concentrations of PEG400 (0.25%, 0.5%, and 1%) was employed as the test solution, while a solution without PEG400 was used as the blank test solution, which was added to AP or BL chambers, respectively. In the top to basolateral (AP-BL) transport experiment, the 0.5 mL sample added to the apical side (AP) was utilized as the supply room, and the HBSS preheated to 1.5 mL 37 °C was added to the basolateral (BL) as the receiving chamber. Conversely, in the basal low lateral to top (BL-AP) transport experiment, the 1.5 mL sample (dissolved in HBSS) was added to the BL side as the supply room, and the 0.5 mL preheated HBSS was added as a receiving room on the AP side. Once the aforementioned steps had been completed, the transwell was placed on a 37 °C thermostatic oscillator at 60 r/min, and 100 μL was withdrawn from the receiving cell or 10 μL from the supply chamber at 30, 60, 90, and 120 min, depending on the experiment, and replenished with an equal volume of blank 37 °C preheated HBSS. The samples were utilized to precipitate the proteins with 100 μL of methanol containing the internal standard for 10 min. After centrifugation at 16,000× g for 15 min at 4 °C, the supernatant was collected in a volume of 70 μL. The contents were determined by UPLC-MS/MS, and apparent permeability coefficients (PAPP) and efflux ratios (ER) were calculated.
The formulas for calculating Papp and ER of monolayer and monolayer are as follows:(2) Papp=dQ/dt/AC0 wherein dQ/dt (ng/mL·s) is the transit rate (ng/mL·s); A is the membrane area (1.12 cm^2); and C0 (ng/mL) is the initial concentration of the sample in the supply chamber. ER = PappBL-AP/PappAP-BL (3) wherein PappBL-AP is the apparent permeability coefficient when the BL is added to the sample, and PappAP-BL is the apparent permeability coefficient when the sample is added at the top side (AP).

[1] = pH 7.4, MDCK II-MRP2, 100 μM BG + 0.25% PEG400
[2] = pH 7.4, MDCK II-MRP2, 100 μM BG + 0.5% PEG400
[3] = pH 7.4, MDCK II-MRP2, 100 μM BG + 1% PEG400
[4] = pH 7.4, MDCK II-MRP2, 100 μM BG alone

T1 sequence (Q92887 whole entry): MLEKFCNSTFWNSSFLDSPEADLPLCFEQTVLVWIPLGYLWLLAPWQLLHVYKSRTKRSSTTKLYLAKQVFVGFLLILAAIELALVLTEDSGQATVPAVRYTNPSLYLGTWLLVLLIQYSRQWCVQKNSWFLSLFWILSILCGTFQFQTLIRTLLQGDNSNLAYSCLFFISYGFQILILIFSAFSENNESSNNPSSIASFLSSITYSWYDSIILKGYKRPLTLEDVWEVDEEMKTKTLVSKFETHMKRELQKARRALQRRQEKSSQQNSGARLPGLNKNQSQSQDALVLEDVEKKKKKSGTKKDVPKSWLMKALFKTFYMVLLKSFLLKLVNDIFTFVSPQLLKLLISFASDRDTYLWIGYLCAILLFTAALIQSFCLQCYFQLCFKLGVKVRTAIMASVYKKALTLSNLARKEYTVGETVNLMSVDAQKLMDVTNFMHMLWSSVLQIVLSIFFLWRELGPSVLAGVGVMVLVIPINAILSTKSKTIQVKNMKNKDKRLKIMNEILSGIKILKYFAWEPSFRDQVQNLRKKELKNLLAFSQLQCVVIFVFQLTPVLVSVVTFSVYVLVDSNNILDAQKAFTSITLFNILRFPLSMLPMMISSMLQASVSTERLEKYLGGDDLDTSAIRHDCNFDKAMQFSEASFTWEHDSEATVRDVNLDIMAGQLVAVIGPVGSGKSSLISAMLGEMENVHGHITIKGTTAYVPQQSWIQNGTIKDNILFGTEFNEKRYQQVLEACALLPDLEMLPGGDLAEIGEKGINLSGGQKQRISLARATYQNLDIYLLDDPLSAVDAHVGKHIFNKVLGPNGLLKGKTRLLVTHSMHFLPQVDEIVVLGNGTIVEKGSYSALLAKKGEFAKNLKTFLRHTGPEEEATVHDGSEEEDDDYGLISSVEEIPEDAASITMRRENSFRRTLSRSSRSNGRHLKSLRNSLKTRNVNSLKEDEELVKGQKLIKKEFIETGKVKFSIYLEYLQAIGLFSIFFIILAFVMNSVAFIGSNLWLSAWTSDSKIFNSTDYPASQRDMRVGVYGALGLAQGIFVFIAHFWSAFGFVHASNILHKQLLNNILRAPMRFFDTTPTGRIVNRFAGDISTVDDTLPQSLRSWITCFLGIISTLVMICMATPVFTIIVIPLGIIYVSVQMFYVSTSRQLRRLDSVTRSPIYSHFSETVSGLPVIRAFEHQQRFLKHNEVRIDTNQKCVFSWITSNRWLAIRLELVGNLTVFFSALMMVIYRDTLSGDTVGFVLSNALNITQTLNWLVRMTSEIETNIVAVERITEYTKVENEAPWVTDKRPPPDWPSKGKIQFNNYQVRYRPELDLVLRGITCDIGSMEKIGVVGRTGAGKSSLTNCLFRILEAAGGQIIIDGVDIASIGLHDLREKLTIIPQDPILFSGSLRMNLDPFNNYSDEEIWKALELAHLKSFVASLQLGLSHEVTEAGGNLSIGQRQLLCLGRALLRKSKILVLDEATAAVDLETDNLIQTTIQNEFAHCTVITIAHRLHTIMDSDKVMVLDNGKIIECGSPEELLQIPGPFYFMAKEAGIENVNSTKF

Question: With `O=C(O)[C@H]1O[C@@H](Oc2cc3oc(-c4ccccc4)cc(=O)c3c(O)c2O)[C@H](O)[C@@H](O)[C@@H]1O` [BG, Baicalein-7-O-β-D-glucuronide] as the compound, how does the Papp A→B at 120 min, 100 μM [1] read?
Answer: 1.27 ± 0.02 ×10⁻⁶ cm/s

Question: And the Papp B→A at 120 min, 100 μM [1]?
Answer: 2.83 ± 0.26 ×10⁻⁶ cm/s

Question: And the efflux ratio at 120 min, 100 μM (pH 7.4, MDCK II-MRP2, 100 μM BG + 0.25% PEG400, read-out: ER)?
Answer: 2.22 ± 0.17

Question: What about the Papp A→B at 120 min, 100 μM [2] of the same compound?
Answer: 2.51 ± 0.07 ×10⁻⁶ cm/s

Question: What about the Papp B→A at 120 min, 100 μM [2] of the same compound?
Answer: 2.73 ± 0.31 ×10⁻⁶ cm/s

Question: What about the efflux ratio at 120 min, 100 μM (pH 7.4, MDCK II-MRP2, 100 μM BG + 0.5% PEG400, read-out: ER) of the same compound?
Answer: 1.08 ± 0.09

Question: And the Papp A→B at 120 min, 100 μM [3]?
Answer: 3.17 ± 0.06 ×10⁻⁶ cm/s

Question: And the Papp B→A at 120 min, 100 μM [3]?
Answer: 2.53 ± 0.17 ×10⁻⁶ cm/s

Question: What about the efflux ratio at 120 min, 100 μM (pH 7.4, MDCK II-MRP2, 100 μM BG + 1% PEG400, read-out: ER) of the same compound?
Answer: 0.8 ± 0.04

Question: What about the Papp A→B at 120 min, 100 μM [4] of the same compound?
Answer: 1.12 ± 0.11 ×10⁻⁶ cm/s

Question: What about the Papp B→A at 120 min, 100 μM [4] of the same compound?
Answer: 3.28 ± 0.27 ×10⁻⁶ cm/s

Question: What about the efflux ratio at 120 min, 100 μM (pH 7.4, MDCK II-MRP2, 100 μM BG alone, read-out: ER) of the same compound?
Answer: 2.45 ± 0.04
